Results on 14 compounds are retold here after PubChem BioAssay (NCI).

Values joined by “and” are separate entries in the source; they are usually repeats but may differ in a detail not shown here. Equal values may be shown once.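 Interpolation was linear, between the two tested concentrations surrounding the appropriate level; five concentrations were tested over 48 hours in 96-well plates. The concentration for full growth arrest is given as TGI.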 Where a SMILES comes first, the peptide text is derived from it. Side-chain parts run from the residue outwards. The star is where a group is joined. Cbz = O=C(OCc1ccccc1)*; Boc = CC(C)(C)OC(=O)*

Some test systems named below: A549 NSCLC; COLO 205 colon; NCI-H522 lung; OVCAR-3 ovarian; OVCAR-4 ovarian; OVCAR-5 ovarian; OVCAR-8 ovarian.
Assay in all cases: DTP human tumour cell line panel, 48 h

For the compound `COc1ccc(N2C(=O)C3c4[nH]c5ccccc5c4C4c5ccccc5CC4C3C2=O)cc1` (stereo not drawn), the TGI with A549 NSCLC, in the assay with COLO 205 colon, with NCI-H522 lung, in the assay on OVCAR-3 ovarian, with OVCAR-4 ovarian and in the assay on OVCAR-5 ovarian was greater than 100 µM each time. Also, the TGI (in general, the concentration at which net growth stops) in the assay with OVCAR-8 ovarian was greater than 100 µM.

Regarding `COc1ccc(-c2nc(-c3cnccn3)n(Cc3ccccc3)n2)cc1`, the TGI in the assay with A549 NSCLC, in the assay on COLO 205 colon, with NCI-H522 lung, with OVCAR-3 ovarian, in the assay with OVCAR-4 ovarian and with OVCAR-5 ovarian was greater than 100 µM throughout. Moreover, in the assay with OVCAR-8 ovarian, the TGI is greater than 100 µM.

`COc1cc2[nH]c(=O)c3cc(C)cc4c(Cl)nc(c1OC)c2c43`: the TGI in the assay with A549 NSCLC, in the assay on COLO 205 colon, in the assay with NCI-H522 lung, in the assay with OVCAR-3 ovarian, with OVCAR-4 ovarian and with OVCAR-5 ovarian was greater than 100 µM in each case. The TGI in the assay on OVCAR-8 ovarian is greater than 100 µM.

`CC(C)(C)OC(=O)NC(CCCCNC(=O)CNC(=O)OCc1ccccc1)C(=O)NC(CCCCNC(=O)CNC(=O)OCc1ccccc1)C(=O)NC(CCCCNC(=O)CNC(=O)OCc1ccccc1)C(=O)NC(CCCCNC(=O)CNC(=O)OCc1ccccc1)C(=O)O` (stereo not drawn) (Boc-K([Gly-Cbz])K([Gly-Cbz])K([Gly-Cbz])K([Gly-Cbz])-OH; configuration not given here): the concentration for total growth inhibition (TGI) in the assay on A549 NSCLC, in the assay on NCI-H522 lung, with OVCAR-3 ovarian, in the assay on OVCAR-5 ovarian and with OVCAR-8 ovarian was greater than 100 µM in each case.

With `COc1ccc(C2=C(Cl)c3cc(OC)c(OC)cc3C2)cc1OC`, the TGI in the assay with A549 NSCLC, in the assay with COLO 205 colon, in the assay on NCI-H522 lung, in the assay with OVCAR-4 ovarian and in the assay on OVCAR-8 ovarian was greater than 100 µM in each case.

With `COc1cc(C(O)C(=O)c2cnc3cc([N+](=O)[O-])ccc3n2)ccc1O` (stereo not drawn), the TGI with A549 NSCLC, in the assay with COLO 205 colon, in the assay with OVCAR-4 ovarian and with OVCAR-8 ovarian was greater than 100 µM in each case.

Take `COc1cc2c(c(OC)c1OC)-c1ccc(SC)c(=O)cc1[C@@H](NCc1cccc([N+](=O)[O-])c1)CC2`: the TGI in the assay with A549 NSCLC is greater than 100 µM; with COLO 205 colon, less than 0.01 µM; in the assay with OVCAR-3 ovarian it was less than 0.01 µM; in the assay with OVCAR-4 ovarian, greater than 100 µM; in the assay on OVCAR-5 ovarian it was greater than 100 µM; in the assay on OVCAR-8 ovarian, 43.8 µM.

For the compound `COc1ccc([C@H]2c3cc4c(cc3OC(O)(CO)[C@H]2C(=O)O)OCO4)c(OC)c1` (stereo partly drawn) (tested in a mixture with another compound), the TGI with A549 NSCLC, with COLO 205 colon, in the assay with OVCAR-3 ovarian, in the assay on OVCAR-4 ovarian, with OVCAR-5 ovarian and in the assay with OVCAR-8 ovarian was greater than 100 µM in each case.

For `COc1ccc(CCCN2c3ccccc3Sc3ccccc32)cc1`, the TGI in the assay with A549 NSCLC, in the assay on COLO 205 colon, with NCI-H522 lung, in the assay on OVCAR-4 ovarian, with OVCAR-5 ovarian and in the assay on OVCAR-8 ovarian was greater than 100 µM throughout.

In the case of `O=C(NN1C(=O)C(Cl)C1c1ccccc1Cl)c1ccccc1O` (stereo not drawn), the TGI with A549 NSCLC, in the assay on NCI-H522 lung, in the assay with OVCAR-3 ovarian, in the assay with OVCAR-4 ovarian and in the assay with OVCAR-8 ovarian was greater than 100 µM in each case.

Turning to `O=C(NNS(=O)(=O)c1ccccc1)c1csc(NC(=S)NC2CCCCC2)n1`, the concentration for total growth inhibition (TGI) with A549 NSCLC is greater than 100 µM; with COLO 205 colon, 43.3 µM; in the assay on NCI-H522 lung, 82.7 µM; with OVCAR-3 ovarian it was 34.4 µM; in the assay on OVCAR-4 ovarian, greater than 100 µM; with OVCAR-5 ovarian, greater than 100 µM. In the assay with OVCAR-8 ovarian, this compound came in with a TGI greater than 100 µM.

Regarding `O=C1c2cccnc2-c2nccc3c2c1nc1ccc(Br)cc13`, the TGI is 0.387 µM with A549 NSCLC; 1.6 µM in the assay with COLO 205 colon; 0.128 µM in the assay on NCI-H522 lung; 0.0586 µM in the assay with OVCAR-3 ovarian; 0.324 µM in the assay with OVCAR-4 ovarian; 0.324 µM with OVCAR-5 ovarian. The compound further gave a TGI with OVCAR-8 ovarian of 0.223 µM.

`OCC1OC(c2ccccc2)CC1O` (stereo not drawn): the TGI in the assay on A549 NSCLC, with COLO 205 colon, with OVCAR-3 ovarian, with OVCAR-4 ovarian, in the assay with OVCAR-5 ovarian and with OVCAR-8 ovarian was greater than 100 µM throughout.

Take `COc1cc2c(c(OC)c1OC)-c1ccc(SC)c(=O)cc1[C@@H](NC(=O)c1ccc([N+](=O)[O-])cc1)CC2`: the TGI in the assay with A549 NSCLC is 25 µM and > 100 µM; in the assay with COLO 205 colon it was 25 µM; with OVCAR-3 ovarian, 0.00595 µM; with OVCAR-4 ovarian, 25 µM and > 100 µM; with OVCAR-5 ovarian, 0.171 µM.
